Laboratory results: patent US6433167B1, “Triazolo-1,4-diazepine compounds and medicinal composition containing the same” (Nikken Chemicals Co., Ltd., priority 1997, dated 2002)

Tests used:
[1] = system: platelet activating factor (PAF)-induced aggregation of platelet rich plasma (PRP); experiment: PAF antagonistic action test (PAF-induced platelet aggregation in platelet rich plasma); type: cell-based, Japanese white rabbits; conditions: test compound final concentration 10^−7M; PAF final concentration 17 nM; rabbit PRP, 37° C.
Experimental: Japanese white rabbits (2.5 to 3.0 kg, Clean Experimental Animal Center) were used. Nine volumes of blood were taken with respect to one volume of 3.8% sodium citrate from the carotid under anesthesia by pentobarbitol. This was centrifuged at 1000 rpm and room temperature for 10 minutes. The top layer was used as the platelet rich plasma (PRP). The lower layer was further centrifuged at 3000 rpm and room temperature for 10 minutes to obtain the platelet poor plasma (PPP).
5 μl (final concentration 10^−7M) of the test compound was added to 90 μl of PRP. This was incubated at 37° C. for 3 minutes, then a platelet activating factor (PAF, final concentration 17 nM) was added to cause aggregation and the aggregation reaction was measured for 5 minutes using an aggrigometer (MC Medical, PAT-606).

[2] = biological target: T1, TxA2 synthesis in human blood platelet microsomes (Homo sapiens, UniProt P24557); experiment: TxA2 synthesis inhibiting action test (TxB2 by EIA); type: biochemical; conditions: test compound final concentration 10^−7M, human blood platelet microsomes 50 μg protein/ml, prostaglandin H2 substrate
T1 construct: containing human blood platelet microsomes (50 μg protein/ml); from tissue; host or cells: human blood platelet microsomes
T1 sequence (P24557 1-533): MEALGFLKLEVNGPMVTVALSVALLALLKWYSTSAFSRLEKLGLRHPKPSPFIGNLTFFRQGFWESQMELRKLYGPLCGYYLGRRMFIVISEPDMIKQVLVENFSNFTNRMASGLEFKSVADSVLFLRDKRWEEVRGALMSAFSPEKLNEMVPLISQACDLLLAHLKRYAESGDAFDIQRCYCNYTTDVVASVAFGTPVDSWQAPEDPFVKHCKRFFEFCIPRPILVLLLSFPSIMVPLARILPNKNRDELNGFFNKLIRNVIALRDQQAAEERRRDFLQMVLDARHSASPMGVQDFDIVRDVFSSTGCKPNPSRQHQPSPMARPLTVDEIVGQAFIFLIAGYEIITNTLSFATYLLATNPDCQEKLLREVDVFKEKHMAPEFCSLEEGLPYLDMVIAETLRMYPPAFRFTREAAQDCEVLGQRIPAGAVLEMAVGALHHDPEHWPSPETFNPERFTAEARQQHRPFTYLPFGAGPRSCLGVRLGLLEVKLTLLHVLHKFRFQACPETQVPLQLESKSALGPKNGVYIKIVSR
Experimental: 1 ml of a buffer (20 MM Tris-HCl buffer, 1 mM EDTA, pH 7.5) containing human blood platelet microsomes (50 μg protein/ml) and the test compound (final concentration 10^−7M) was agitated, then incubated at 0° C. for 30 minutes. To this was added prostaglandin H2 (100 ng/2 μl). This was incubated at 23° C. for 3 minutes to cause a reaction. Next, 1M hydrochloric acid was added to make the solution acidic and stop the reaction, then this was neutralized by 1M Tris-Base and centrifuged at 3000 rpm for 20 minutes. The amount of the TxB2 in the supernatant was measured by the EIA method (Cayman Co. kit).
The test results are shown in Table II. a Further, as controls, UK-74,505 having a PAF antagonistic action and OKY-046 having a TxA2 synthesis inhibiting action were used.

rats or mice = experiment: Acute toxicity test; type: in vivo; conditions: administered intravenously, 10 mg/kg

SMILES | PAF antagonistic action Rate of suppression at 10^−7 M (%) [1] | inhibition at 0.1 µM ([2]; read-out: TxA2 synthesis inhibiting action Rate of suppression at 10^−7 M (%)) | TxA2 synthesis inhibiting action Rate of suppression at 10^−7 M (%) [2] | Deaths after intravenous administration (rats or mice)
CCOC(=O)CCCCON=C(c1cccnc1)c1ccccc1C(=O)N1CCc2c(sc3c2C(c2ccccc2Cl)=NC(C)c2nnc(C)n2-3)C1 (mixture of isomers) [Compound 1, 6-(2-Chlorophenyl)-3-[2-[((E/Z)-4-ethoxycarbonylbutyloxyimino)(3-pyridyl)methylene]phenylcarbonyl]-8,11-dimethyl-2,3,4,5-tetrahydro-8H-pyrido[4′,3′:4,5]thieno[3,2-f][1,2,4]triazolo[4,3-a][1,4]diazepine] | 82.0% | 53% |  | 
CCOC(=O)CCCCON=C(c1ccc(CC(=O)N2CCc3c(sc4c3C(c3ccccc3Cl)=NC(C)c3nnc(C)n3-4)C2)cc1)c1cccnc1 (mixture of isomers) [Compound 4, 6-(2-Chlorophenyl)-3-[4-[((E/Z)-4-ethoxycarbonylbutyloxyimino)(3-pyridyl)methyl]phenylmethylcarbonyl]-8,11-dimethyl-2,3,4,5-tetrahydro-8H-pyrido[4′,3′:4,5]thieno[3,2-f](1,2,4]triazolo[4,3-a][1,4]diazepine] | 94.6% |  | 79.6% | no deaths were observed
CCOC(=O)CCCCON=C(c1cccnc1)c1cccc(CCCC(=O)N2CCc3c(sc4c3C(c3ccccc3Cl)=NC(C)c3nnc(C)n3-4)C2)c1 (mixture of isomers) [Compound 5, 6-(2-Chlorophenyl)-3-[3-[3-[((E/Z)-4-ethoxycarbonylbutyloxyimino)(3-pyridyl)methyl]phenyl]propylcarbonyl]-8,11-dimethyl-2,3,4,5-tetrahydro-8H-pyrido[4′,3′:4,5]thieno[3,2-f][1,2,4]triazolo[4,3-a][1,4]diazepine] | 95.5% |  | 40.3% | 
CCOC(=O)CCCCON=C(c1ccc(COCC(=O)N2CCc3c(sc4c3C(c3ccccc3Cl)=NC(C)c3nnc(C)n3-4)C2)cc1)c1cccnc1 (mixture of isomers) [Compound 6, 6-(2-Chlorophenyl)-3-[4-[((E/Z)-4-ethoxycarbonylbutyloxyimino)(3-pyridyl)methyl]phenylmethyloxymethylcarbonyl]-8,11-dimethyl-2,3,4,5-tetrahydro-8H-pyrido[4′,3′:4,5]thieno[3,2-f][1,2,4]triazolo[4,3-a][1,4]diazepine] | 79.8% |  | 75.6% | no deaths were observed
CCOC(=O)CCCCON=C(c1cccnc1)c1cccc(CN2CCc3c(sc4c3C(c3ccccc3Cl)=NC(C)c3nnc(C)n3-4)C2)c1 (mixture of isomers) [Compound 7, 6-(2-Chlorophenyl)-3-[3-[((E/Z)-4-ethoxycarbonylbutyloxyimino)(3-pyridyl)methyl]phenylmethyl]-8,11-dimethyl-2,3,4,5-tetrahydro-8H-pyrido[4′,3′:4,5]thieno[3,2-f][1,2,4]triazolo[4,3-a][1,4]diazepine] | 94.0% |  | 58.2% | 
Cc1nnc2n1-c1sc3c(c1C(c1ccccc1Cl)=NC2C)CCN(Cc1cccc(C(=NOCCCCC(=O)O)c2cccnc2)c1)C3 (mixture of isomers) [Compound 8, 6-(2-Chlorophenyl)-3-[3-[((E/Z)-4-carboxydibutyloxyimino)(3-pyridyl)methyl]phenylmethyl]-8,11-dimethyl-2,3,4,5-tetrahydro-8H-pyrido[4′,3′:4,5]thieno[3,2-f][1,2,4]triazolo[4,3-a][1,4]diazepine] | 52.0% |  | 81.7% | 
CCOC(=O)CCCCC=C(c1ccc(CN2CCc3c(sc4c3C(c3ccccc3Cl)=NC(C)c3nnc(C)n3-4)C2)cc1)c1cccnc1 (mixture of isomers) [Compound 11, 6-(2-Chlorophenyl)-3-[4-[((E/Z)-5-ethoxycarbonylpentylidene)(3-pyridyl)methyl]phenylmethyl]-8,11-dimethyl-2,3,4,5-tetrahydro-8H-pyrido[4′,3′:4,5]thieno[3,2-f][1,2,4]triazolo[4,3-a][1,4]diazepine] | 94.2% |  | 83.7% | 
O=C(O)/C=C/c1ccc(Cn2ccnc2)cc1 [OKY-046, reference compound] | 0% |  | 84.5% | 
CCOC(=O)C1=C(c2ccc(-n3c(C)nc4cnccc43)cc2)NC(C)=C(C(=O)Nc2ccccn2)C1c1ccccc1Cl (centres unmarked) [UK-74,505, reference compound] | 89.0% |  | 0% | 
